Reference: US8404691B2, “Imidazothiazole derivatives having proline ring structure” (Daiichi Sankyo Company, Limited, priority 2009, dated 2013)

Columns and labels:
Mdm2/p53 binding = biological target: T1, Mdm2/p53 binding (Homo sapiens, UniProt Q00987, L33E); assay: Mdm2/p53 binding assay (HTRF, His-p53 and GST-Mdm2); conditions: His-p53 (aa 1-132) and GST-Mdm2 (aa 25-108, L33E), 6.25 nM each, 25° C. for 1 hour
T1 construct: Mdm2 amino acids at positions 25 to 108
Experimental: Next, a test compound was diluted with DMSO to produce protein buffer solution containing 10% dilution, and this buffer solution was added in an amount of 4 μL/well to the plate.
These dilutions were added in an amount of 8 μL/well (total reaction solution volume: 20 μl/well). Then, the plate was left at 25° C. for 1 hour.
The R value calculated from the well supplemented with His-p53, GST-Mdm2, the test compound, and each antibody was defined as R (sample). The R value calculated from the well supplemented with His-p53, GST-Mdm2, and each antibody but without the test compound was defined as R (control). The R value calculated from the well supplemented with GST-Mdm2, the test compound, and each antibody but without His-p53 was defined as R (background). T/C was calculated from the formula shown below. An IC50 value for Mdm2/p53 binding was calculated by sigmoid fitting. T/C=(R(sample)−R(background))/(R(control)−R(background))

[1] = Metabolic stability test (microsomal metabolism); assay type: in vitro ADME; conditions: human liver microsomes, 37° C., 30 minutes after addition of NADP+; note: tested at 1.1 µM
Experimental: 100 μL of 100 mM phosphate buffer solution (pH 7.4) containing 3 μM test compound was added to 100 μL of reaction solution containing 100 mM phosphate buffer solution (pH 7.4), 30 mM glucose 6-phosphate, 10 mM MgCl2.6H2O, 3 units/mL glucose 6-phosphate 1-dehydrogenase, and 0.3 to 1.5 mgP/mL human liver microsomes and the mixture was incubated at 37° C. for 20 minutes. Then, 70 μL of 100 mM phosphate buffer solution (pH 7.4) containing 3 mM NADP+ was added and the mixture was further incubated at 37° C. for 30 minutes to conduct a microsomal metabolism test. The compound was quantified by the internal standard method using a quadrupole mass spectrometer connected to a high performance liquid chromatography apparatus. The metabolic stability (residual percentage of compound: MS %) was determined according to the following formula: MS(human)(%)=(peak area ratio of test compound after addition of NADP+ and incubation for 30 minutes)/(peak area ratio of test compound before addition of NADP+)×100.
(peak area ratio: peak area of test compound divided by that of internal standard substance)

[2] = system: human lung cancer-derived cell line NCI-H460 having wild-type p53; assay: Cell growth inhibition assay (MTT); assay type: cell-based; conditions: 72 h, NCI-H460 cells, culturing 3 days, read-out: anti-cellular effect GI50 (50% growth inhibition concentration)
Experimental: A cell growth inhibition assay was conducted using human lung cancer-derived cell line NCI-H460 having wild-type p53.
NCI-H460 cells were suspended in a medium (RPMI1640 medium containing 10% fetal bovine serum) and the suspension was inoculated in an amount of 500 cells/150 μL/well to a 96-well multiwell plate. A test compound was dissolved in DMSO and this solution was diluted with medium to prepare a sample solution (DMSO concentration: 1% or lower). On the next day of inoculation, medium nonsupplemented with the test compound or the sample solution was added in an amount of 50 μL/well. The MTT assay was conducted immediately after the medium was added in an amount of 50 μL on the next day of cell inoculation, and after the sample solution or the medium was added to cells followed by culturing at 37° C. for 3 days in a 5% CO2 atmosphere. The MTT assay was conducted as shown below.
A 5 mg/mL MTT (3-(4,5-dimethylthiazol-2-yl)-2,5-diphenyltetrazolium bromide, Sigma-Aldrich Co., M-2128) solution was prepared using a phosphate buffer solution (Dulbecco's Phosphate-buffered Saline). This MTT solution was added in an amount of 20 μL/well. Then, the plate was cultured at 37° C. for 4 hours in a 5% CO2 atmosphere. The plate was centrifuged at 1200 rpm for 5 minutes and then the culture supernatant was removed by aspiration using a dispenser. DMSO was added in an amount of 150 μL/well to dissolve generated formazan. The plate was stirred using a plate mixer for uniform color development from each well. The absorbance of each well was measured under conditions of OD 540 nm and reference 660 nm using a plate reader (SpectraMax PLUS384, Molecular Devices, CA, USA).
The OD value measured on the day of adding the sample solution was defined as S. The OD value measured three days after addition of the sample solution was defined as T. The OD value measured three days after addition of the DMSO dilution was defined as C. T/C (%) was determined at each concentration according to the calculation formula shown below to prepare a dose response curve, from which 50% growth inhibition concentration (GI50 value) was calculated. T/C(%)=(T−S)/(C−S)×100

T1 sequence (Q00987 25-108 L33E): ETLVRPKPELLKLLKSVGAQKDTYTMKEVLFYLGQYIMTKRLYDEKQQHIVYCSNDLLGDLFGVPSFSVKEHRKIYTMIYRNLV

Row | IC50 (Mdm2/p53 binding) [nM] | MS (human) % (metabolic stability, residual percentage of compound) [1] [%] | GI50 [2] [nM] | Structure (SMILES)
1 | 1.4 | 36 | < 400 | CC(C)C1=C(C(=O)N2C[C@H](F)C[C@H]2C(=O)N2CC3(CC3)NC[C@H]2C)SC2=N[C@@](C)(c3ccc(Cl)cc3)[C@@H](c3ccc(Cl)cc3)N21 [Example 20]
2 | 2.2 | 95 | < 400 | CC(C)C1=C(C(=O)N2C[C@H](F)C[C@H]2C(=O)N2CC3(CC3)NCC23CC3)SC2=N[C@@](C)(c3ccc(Cl)nc3)[C@@H](c3ccc(Cl)c(F)c3)N21 [Example 8, 4-[(4R)-1-{[(5R,6S)-5-(4-chloro-3-fluorophenyl)-6-(6-chloropyridin-3-yl)-3-isopropyl-6-methyl-5,6-dihydroimidazo[2,1-b][1,3]thiazol-2-yl]carbonyl}-4-fluoro-L-prolyl]-4,9-diazaspiro[2.2.2.2]decane]
3 | 3.1 | 62 | 400 to 2500 | CC[C@@H]1CNC2(CC2)CN1C(=O)[C@@H]1C[C@@H](F)CN1C(=O)C1=C(C(C)C)N2C(=N[C@@](C)(c3ccc(Cl)nc3)[C@H]2c2ccc(Cl)cc2)S1 [Example 30]
4 | 2.3 | 56 | < 400 | CC(C)C1=C(C(=O)N2C[C@H](F)C[C@H]2C(=O)N2CC3(CC3)N(C)C[C@@H]2C)SC2=N[C@@](C)(c3ccc(Cl)nc3)[C@@H](c3ccc(Cl)c(F)c3)N21 [Example 16]

The remaining lines, values behind:

Row | Structure (SMILES) | IC50 (Mdm2/p53 binding) [nM] | MS (human) % (metabolic stability, residual percentage of compound) [1] [%] | GI50 [2] [nM]
5 | CC(C)C1=C(C(=O)N2C[C@H](F)C[C@H]2C(=O)N2CCN(C)C3(CC3)C2)SC2=N[C@@](C)(c3ccc(Cl)nc3)[C@@H](c3ccc(Cl)c(F)c3)N21 [Example 15, 7-[(4R)-1-{[(5R,6S)-5-(4-chloro-3-fluorophenyl)-6-(6-chloropyridin-3-yl)-3-isopropyl-6-methyl-5,6-dihydroimidazo[2,1-b][1,3]thiazol-2-yl]carbonyl}-4-fluoro-L-prolyl]-4-methyl-4,7-diazaspiro[2.5]octane] | 2.7 | 44 | < 400
6 | CC[C@H]1CNC2(CC2)CN1C(=O)[C@@H]1C[C@@H](F)CN1C(=O)C1=C(C(C)C)N2C(=N[C@@](C)(c3ccc(Cl)cc3)[C@H]2c2ccc(Cl)cc2)S1 [Example 21] | 2.2 | 96 | < 400
7 | CC(C)C1=C(C(=O)N2C[C@H](F)C[C@H]2C(=O)N2CCNC3(CC3)C2)SC2=N[C@@](C)(c3ccc(Cl)cc3)[C@@H](c3ccc(Cl)cc3)N21 [Example 18] | 1.6 | 6 | < 400
8 | CC(C)C1=C(C(=O)N2C[C@H](F)C[C@H]2C(=O)N2CC3(CC3)NC[C@H]2CO)SC2=N[C@@](C)(c3ccc(Cl)nc3)[C@@H](c3ccc(Cl)c(F)c3)N21 [Example 12, {(6S)-7-[(4R)-1-{[(5R,6S)-5-(4-chloro-3-fluorophenyl)-6-(6-chloropyridin-3-yl)-3-isopropyl-6-methyl-5,6-dihydroimidazo[2,1-b][1,3]thiazol-2-yl]carbonyl}-4-fluoro-L-prolyl]-4,7-diazaspiro[2.5]oct-6-yl}methanol] | 5 | 69 | 400 to 2500
9 | CC(C)C1=C(C(=O)N2C[C@H](F)C[C@H]2C(=O)N2CC3(CC3)N(C)C[C@H]2C)SC2=N[C@@](C)(c3ccc(Cl)nc3)[C@@H](c3ccc(Cl)c(F)c3)N21 [Example 17] | 3.3 | 44 | 400 to 2500
